Measured values published in patent US9029545B2, “Thienopyridine NOX2 inhibitors” (GlaxoSmithKline Intellectual Property Limited, priority 2009, dated 2015).
Where a name gives a salt, the structure may show the parent alone.

Molecular target: T1, NOX2 in differentiated HL60 cells (Homo sapiens, UniProt P04839)
T1 construct: Differentiation of HL-60 cells to granulocytes increases NOX2 expression; endogenous in cells; host or cells: HL60 cells differentiated to neutrophil-like cells with 1.3% DMSO and stimulated with PMA
T1 sequence (P04839 1-570): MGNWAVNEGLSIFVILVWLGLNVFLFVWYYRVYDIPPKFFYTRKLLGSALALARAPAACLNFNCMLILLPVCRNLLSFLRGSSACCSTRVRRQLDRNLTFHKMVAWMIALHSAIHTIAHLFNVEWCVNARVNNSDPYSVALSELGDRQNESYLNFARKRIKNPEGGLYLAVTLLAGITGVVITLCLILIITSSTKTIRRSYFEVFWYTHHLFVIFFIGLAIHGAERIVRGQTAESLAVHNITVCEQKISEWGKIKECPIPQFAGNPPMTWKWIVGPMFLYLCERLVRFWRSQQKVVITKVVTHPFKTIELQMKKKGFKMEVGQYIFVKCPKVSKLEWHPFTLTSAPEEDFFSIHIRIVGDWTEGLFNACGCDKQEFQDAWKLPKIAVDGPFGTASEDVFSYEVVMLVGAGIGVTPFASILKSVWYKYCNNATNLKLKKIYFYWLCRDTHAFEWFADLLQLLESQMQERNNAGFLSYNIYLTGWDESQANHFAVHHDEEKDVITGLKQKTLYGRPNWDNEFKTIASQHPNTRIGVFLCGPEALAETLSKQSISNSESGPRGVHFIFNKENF
T1 sequence (P13498 1-195 partner): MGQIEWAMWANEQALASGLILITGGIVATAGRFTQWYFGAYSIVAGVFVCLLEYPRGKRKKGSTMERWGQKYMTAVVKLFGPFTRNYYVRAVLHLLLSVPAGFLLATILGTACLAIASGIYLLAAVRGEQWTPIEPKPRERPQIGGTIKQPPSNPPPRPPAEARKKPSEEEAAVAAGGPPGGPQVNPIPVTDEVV
Experiment: HL60 cell-based assays (Assay 1 Oxyburst green BSA fluorescence, Assay 2 L-012 luminescence); result stated for at least one of them
Details: PMA-stimulated superoxide production in differentiated HL60 cells; at least one of Oxyburst and L012 assays; read-out: pIC50 in at least one of the HL60 assays (converted)
Procedure: In the cell-based assay, superoxide production by NOX2 was measured in differentiated HL60 cells, a human myelomonocytic leukemia cell line, using either Oxyburst (Assay1) or L012 (Assay2). Differentiation of HL-60 cells to granulocytes increases NOX2 expression. The phorbol 12-myristate 13-acetate (PMA) was used to stimulate the production of superoxide in HL60 cells by activating protein kinase C, which then activated the NADPH oxidase (NOX) enzymes. Inhibition of NOX2 enzyme was detected by the reversal of fluorescence signal (Assay1) or luminescence signal (Assay2). The control inhibitor used was diphenyleneiodonium chloride (DPI), a […] inhibitor capable of non-selectively inhibiting superoxide produced by NOX enzymes.
Assay 1: in this high-throughput screening assay, oxyburst green bovine serum albumin (BSA) was used to detect superoxide production in HL60 cells. Oxidation of Oxyburst green BSA by hydrogen peroxide as a result of the activation of NOX2 by PMA. Oxyburst green BSA fluorescence was measured at excitation 485 nm and emission 530 nm.
Assay 2: in this assay, a chemiluminescence probe, L-012 was used to detect superoxide production in HL60 cells. L-012 reacted with various types of reactive oxygen species generated by PMA-activated HL60 cells. Luminescence was measured using Tecan Infinite 500.
The HL60 cells were differentiated into neutrophil-like cells by adding 1.3% DMSO in the media for 3-7 days (Hua, J et al. (2000) Journal of Leukocyte Biology. 68:216-224). Iscove's Modified Dulbecco's Media (IMDM) with L-Glutamine and 25 mM HEPES buffer, Fetal Bovine Serum (FBS), Penicillin/Streptomycin, Oxyburst Green BSA, PBS, and HBSS buffer with Calcium Chloride and Magnesium Chloride were purchased from Invitrogen (Catalog #s: 12440-061, 10500-064, 15140-163, O-13291, 14190-250, and 14025-134 respectively). Phorbol 12-myristate 13-acetate (PMA), glucose, and CHAPS were purchased from Sigma (Catalog #s: 79346, D-9434, and C5070 respectively). Diphenyleneiodonium chloride (DPI) was purchased from Toronto Research Chemicals (Catalog #: D491500). L-012 was purchased from Wako Chemical (Catalog #: 120-04891). Dimethyl sulfoxide (DMSO) was purchased EMD Chemicals (VWR Catalog #: MX1456-1). Multidrop combi was purchased from Thermo Electron Corporation (Waltham, Mass., USA). Hummingbird nanoliter liquid dispenser was purchased from Genomics Solution (Ann Arbor, Mich., USA). 384 well low-volume plates and polypropylene 384 well clear plates were purchased from Greiner (Catalog #: 784076 and 781280 respectively). 96 well plate and 384 well plate black assay plates were purchased from Greiner (Catalog #: 655094 and 781098). 96 well plate for compound serial dilution was purchased from Corning (Catalog #: 9017). Acquest or Analyst fluorescence plate reader was purchased from LJL Biosystems/Molecular Devices (California, USA). Tecan Infinite 500 was purchased from Tecan (Switzerland).
Media for HL60 cells were kept at 4° C. for storage and were warmed to 37° C. in a water bath before use. The media components were IMDM media with 20% FBS and 1% Penicillin/Streptomycin.
Buffer to be used for compound addition and compound dilution consisted of HBSS buffer with 0.1% glucose.
Buffer to be used for cells consisted of HBSS buffer with 0.1% glucose and 0.01% CHAPS.
HL60 cells were thawed and resuspended in Cells media. The cells were centrifuged at 1200 rpm for 8 minutes. Media was aspirated and the cells were resuspended in Cells buffer. The cells were counted and resuspended to 1×10^6 cells/mL.
Full inhibition controls were dispensed using 100 nL/well of 1 mM DPI in DMSO to column 18 of a 384 well plate. Compounds were dispensed using 100 nL/well. Full activity controls were dispensed using 100 nL/well of 4 uM PMA in DMSO. Oxyburst Green BSA was added to cell solution at 10 ug/mL. Using the Multidrop, 10 uL cell solution was added to the entire assay plate. The assay plate was incubated at room temperature for 100 minutes. […]

Row | SMILES | IC50
1 | COc1cccc(-c2c(C)sc3nc(C)cc(NS(=O)(=O)c4cccc(Cl)c4)c23)c1 [Example 1, 3-Chloro-N-{2,6-dimethyl-3-[3-(methyloxy)phenyl]thieno[2,3-b]pyridin-4-yl}-benzenesulfonamide] | < 100 µM
2 | COc1cccc(-c2c(C)sc3nc(C)cc(NS(=O)(=O)C4CCCCC4)c23)c1 [Example 8, N-{2,6-Dimethyl-3-[3-(methyloxy)phenyl]thieno[2,3-b]pyridin-4-yl}-cyclohexanesulfonamide] | < 100 µM
3 | COc1cccc(-c2c(C)sc3nc(C)cc(NS(=O)(=O)C4(Cl)CCN(C(=O)OCc5ccccc5)CC4)c23)c1 [Example 10, Phenylmethyl 4-chloro-4-[({2,6-dimethyl-3-[3-(methyloxy)phenyl]thieno[2,3-b]pyridin-4-yl}amino)sulfonyl]-1-piperidinecarboxylate] | < 100 µM
4 | COc1ccc(-c2c(C)sc3nc(C)cc(NS(=O)(=O)c4cccc(Cl)c4)c23)cc1 [Example 18, 3-Chloro-N-{2,6-dimethyl-3-[4-(methyloxy)phenyl]thieno[2,3-b]pyridin-4-yl}-benzenesulfonamide] | < 100 µM
5 | Cc1cc(NS(=O)(=O)c2cccc(Cl)c2)c2c(-c3ccc(Cl)c(Cl)c3)c(C)sc2n1 [Example 20, 3-Chloro-N-[3-(3,4-dichlorophenyl)-2,6-dimethylthieno[2,3-b]pyridin-4-yl]benzenesulfonamide] | < 100 µM
6 | COC(=O)c1sc2nc(C)cc(NS(=O)(=O)c3cccc(Cl)c3)c2c1-c1cccc(OC)c1 [Example 36, Methyl 4-{[(3-chlorophenyl)sulfonyl]amino}-6-methyl-3-[3-(methyloxy)phenyl]thieno[2,3-b]pyridine-2-carboxylate] | < 100 µM
7 | COc1cccc(-c2c(-c3cccnc3)sc3nc(C)cc(NS(=O)(=O)c4cccc(Cl)c4)c23)c1 [Example 41, 3-Chloro-N-[6-methyl-3-[3-(methyloxy)phenyl]-2-(3-pyridinyl)thieno[2,3-b]pyridin-4-yl]-benzenesulfonamide] | < 100 µM
8 | COc1cccc(-c2c(-c3ccco3)sc3nc(C)cc(NS(=O)(=O)c4cccc(Cl)c4)c23)c1 [Example 42, 3-Chloro-N-{2-(2-furanyl)-6-methyl-3-[3-(methyloxy)phenyl]thieno[2,3-b]pyridin-4-yl}-benzenesulfonamide] | < 100 µM
9 | COc1cccc(-c2c(-c3cccs3)sc3nc(C)cc(NS(=O)(=O)c4cccc(Cl)c4)c23)c1 [Example 44, 3-Chloro-N-[6-methyl-3-[3-(methyloxy)phenyl]-2-(2-thienyl)thieno[2,3-b]pyridin-4-yl]-benzenesulfonamide] | < 100 µM
10 | COc1cccc(-c2c(C(C)C)sc3nc(C)cc(NS(=O)(=O)c4cccc(Cl)c4)c23)c1 [Example 45, 3-Chloro-N-{6-methyl-2-(1-methylethyl)-3-[3-(methyloxy)phenyl]thieno[2,3-b]pyridin-4-yl}-benzenesulfonamide trifluoroacetate] | < 100 µM
11 | COc1ccc(-c2csc3nc(C)cc(NS(=O)(=O)c4cccc(Cl)c4)c23)cc1OC [Example 47, N-{3-[3,4-Bis(methyloxy)phenyl]-6-methylthieno[2,3-b]pyridin-4-yl}-3-chlorobenzenesulfonamide trifluoroacetate] | < 100 µM
12 | CCc1sc2nc(C)cc(NS(=O)(=O)c3cccc(Cl)c3)c2c1-c1cccc(N(C)C)c1 [Example 48, 3-Chloro-N-{3-[3-(dimethylamino)phenyl]-2-ethyl-6-methylthieno[2,3-b]pyridin-4-yl}benzenesulfonamide trifluoroacetate] | < 100 µM
13 | COc1cccc(-c2c(C)sc3nc(C)cc(NS(=O)(=O)c4cncc(Br)c4)c23)c1 [Example 52, 5-Bromo-N-{2,6-dimethyl-3-[3-(methyloxy)phenyl]thieno[2,3-b]pyridin-4-yl}-3-pyridinesulfonamide trifluoroacetate] | < 100 µM
